Values of other authors, collected in paper PMC7587396, “New Zileuton-Hydroxycinnamic Acid Hybrids: Synthesis and Structure-Activity Relationship towards 5-Lipoxygenase Inhibition” (Molecules, 2020).

Target: T1, 5-LO (Homo sapiens, UniProt P09917)
T1 sequence (P09917 1-674): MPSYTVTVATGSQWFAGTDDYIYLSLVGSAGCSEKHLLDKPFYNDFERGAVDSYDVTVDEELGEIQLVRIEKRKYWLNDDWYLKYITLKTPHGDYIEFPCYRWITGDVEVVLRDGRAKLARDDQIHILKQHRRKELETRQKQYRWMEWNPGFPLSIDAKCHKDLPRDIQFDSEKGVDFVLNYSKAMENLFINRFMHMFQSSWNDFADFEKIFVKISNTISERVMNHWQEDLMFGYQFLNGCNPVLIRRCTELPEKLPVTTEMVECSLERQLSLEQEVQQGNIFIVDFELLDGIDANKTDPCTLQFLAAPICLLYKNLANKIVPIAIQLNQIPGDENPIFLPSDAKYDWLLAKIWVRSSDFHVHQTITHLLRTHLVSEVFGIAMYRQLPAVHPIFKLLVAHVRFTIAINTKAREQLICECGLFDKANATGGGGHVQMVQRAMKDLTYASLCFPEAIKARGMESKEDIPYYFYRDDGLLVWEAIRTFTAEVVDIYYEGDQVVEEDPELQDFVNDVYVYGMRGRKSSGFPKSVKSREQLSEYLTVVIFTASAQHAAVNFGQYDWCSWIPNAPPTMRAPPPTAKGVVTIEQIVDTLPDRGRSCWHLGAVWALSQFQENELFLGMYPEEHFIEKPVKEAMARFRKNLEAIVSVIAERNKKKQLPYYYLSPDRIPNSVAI
Set-up: 5-LO is highly expressed in PMNL; endogenous in cells; host or cells: human PMNL from peripheral blood of healthy volunteers
Settings: read-out: IC50, inhibition of LTs biosynthesis in human PMNL; cited from earlier work

SMILES: O=C(/C=C/c1ccc(O)c(O)c1)OCCc1ccccc1 [CAPE, caffeic acid phenethyl ester]
- IC50: 520 nM
